# Where no end group is shown, it is not given here.
# Assays:
# [1] = target: HLA-A*2402 molecule (Homo sapiens, UniProt P04439, D101N/D140Y/D185E/E176V/E190D/F33S/G103R/G107R/I119L/I121M/I306V/K335N/L105A/L180Q/L300P/N151K/N90K/Q86E/Q94H/R106L/R138H/R89G/T104I/T345S/V100E/W191G/Y123F); assay: Peptide binding to HLA-A*2402 molecule on C1R-A24 cells (flow cytometry, Kd); settings: HLA-A*2402, C1R-A24 cells; read-out: Binding assay data (−log Kd) (converted)
# Procedure: The ability of a peptide to bind to an HLA-A*2402 molecule, which is a product of the HLA-A*2402 gene, was measured using C1R-A24 cells expressing the HLA-A*2402 molecule (cells generated by Professor Masafumi Takiguchi, Kumamoto University being supplied with permission by Associate Professor Masaki Yasukawa, Ehime University).
# C1R-A24 cells were first exposed to acidic conditions at a pH of 3.3 for 30 seconds, thus dissociating and removing a β2m light chain, which is associated with HLA class I molecules in common, and an endogenous peptide originally bound to the HLA-A*2402 molecule. After neutralization, purified β2m was added to C1R-A24 cells, the obtained product was added to serial dilutions of a peptide, and incubated on ice for 4 hours. […]
# Subsequently, the number of MHC-pep complexes per C1R-A24 cell (proportional to the intensity of fluorescence of the above-mentioned fluorescent antibody) was quantitatively measured using a FACScan fluorescence-activated flow cytometer (Becton Dickinson Biosciences). A dissociation constant Kd value between the HLA-A*2402 molecule and the peptide was calculated from the average intensity of fluorescence per cell by a method published in the literature (Udaka et al., Immunogenetics, 51, 816-828, 2000).
# [2] = test system: IFN-γ-producing cells in peripheral blood mononuclear cells; assay: ELISPOT of patients' PBMCs before and after W10 peptide immunization; type: cell-based, human
# Procedure: In order to compare the cytotoxicity of peripheral blood mononuclear cells between that before administration of 5×10̂8 cells of whole-cell pertussis vaccine and 3 mg of W10 peptide to that after administering it three times, peripheral blood mononuclear cells were cultured with the immunizing peptide under conditions described later, and the number of cells that produced IFN-γ in a peptide-dependent manner were counted. The cells used for the ELISPOT assay are also described later.
# The results are shown in FIG. 6 (response of PBMC of patients having HLA-A*2402), FIG. 7 (response of patients having HLA-A*0201), and FIG. 8 (response of patients having HLA-A*0206). The abscissa denotes the peptide that was bound to antigen presenting cells (in the figures, referred to as APCs (antigen presenting cells)), and the ordinate denotes the number of INF-γ-producing cells per 1×10̂4 cells. The response of peripheral blood mononuclear cells one week after three-time immunizations is shown with closed bars, and the response of peripheral blood mononuclear cells collected immediately before immunization is shown with open bars. […]
# Peripheral blood mononuclear cells (PBMC) were stimulated in vitro once a week for a total of three times and then, the number of cells that produced IFN-γ in response to the antigen peptide were counted. […]
# [3] = test system: HLA-A*2402 positive cell lines that express WT1 naturally (KAZZ, KCL22, KH88, MEG01); assay: Reactivity of WT1 peptide-specific cell lines toward tumor cells (IFN-γ ELISPOT); type: cell-based, human; settings: cell lines established from HLA-A*2402 positive patients, FIG. 5
# Description: Reactions of cell lines established from different patients are arranged in a bar graph.
# [4] = test system: peptide-loaded target cells (C1R-A24, RA24, T2); assay: 51Cr release assay of PBMC killing activity against peptide-loaded target cells; type: cell-based, human
# Procedure: Target cells were labeled with ^51Cr and loaded with HLA-binding peptide of interest. 5,000 or 10,000 cells/well of target cells were placed in 96-well U-bottom plate, and then, PBMCs having been stimulated twice in vitro were added thereto as a responder. Cells were incubated at 37° C. for 5 hours and ^51Cr released from the damaged cells during the incubation was measured, and % specific lysis was calculated. As target cells C1R-A24 or RA24 cells were used as a target when reactivity to HLA-A*2402 binding peptides were examined, and T2 cells were used as a target and incubation was carried out for 2 hours after addition of responder cells. Percent specific lysis was calculated as follows. % specific lysis=(test release-spontaneous release)/(total release-spontaneous release)×100.
sequence,measurement,setting,value
ALLPAVPSL [W10],Kd,[1],0.692 nM
same,Number of W10-reactive IFN-γ-producing T-cells,"[2]; patient KB07-006, after 1 mg W10 peptide for 3 weeks",increased
same,Increase of cells producing IFN-γ in response to W10 peptide after immunization,"[2]; patients with HLA-A*2402, HLA-A*0201 or HLA-A*0206, 3 mg W10 + Wc x3",often observed
same,Reactivity of peptide-dependent cell line toward WT1-expressing cell lines compared with C1R-A24,[3],tends to be higher although differences are small
same,Peptide-reactive cytolytic cells in PBMCs of patients,"[4]; HLA-A*0201 binding peptides, T2 targets",contain cytolytic cells that recognize
same,Peptide-reactive cytolytic cells in PBMCs of patients,"[4]; HLA-A*2402 binding peptides, FIG. 9a and b",cytolytic cells include those reactive

# Source: patent US20100255020A1, “METHOD FOR INDUCING CYTOTOXIC T-CELLS, CYTOTOXIC T-CELL INDUCERS, AND PHARMACEUTICAL COMPOSITIONS AND VACCINES EMPLOYING THEM” (NEC CORPORATION, priority 2007, published 2010)
